The test system of test [1] is bronchoconstriction induced by TXA2 mimetic agent U46619. Put plainly: bronchoconstriction test, Konzett-Rossler guinea-pig model, test (c). The test is classed as in vivo. As to conditions: some 3 hours following an oral dose of 5mg/kg, U46619 i.v. 1-1.5 μg/kg. On the procedure: (c) a bronchoconstriction test involving measuring the inhibition by a test compound of the bronchoconstriction induced in the Konzett-Rossler guinea-pig model (as modified by Collier and James, Brit. J. Pharmacol., 1967, 30, 283-307) by intravenous administration of the TXA2 mimetic agent, U46619 at 1-1.5 μg/kg.

The subject of test [2] is rabbit aortal strip, agonist TXA2 mimetic agent U46619. Put plainly: rabbit aortal strip model, test (a). Further details: species or system isolated tissue. The text has this: (a) The rabbit aortal strip model devised by Piper and Vane (Nature, 1969, 223, 29-35) using as agonist the TXA2 mimetic agent known as U46619 (R. L. Jones et alia in "Chemistry, Biochemistry and Pharmacological Activity of Prostanoids", eds. S. M. Roberts and F. Scheinmann, at p.211; Pergamon Press, 1979);

Test [3] has as its system hypertensive effect of TXA2 mimetic agent U46619. Put plainly: U46619-induced hypertensive effect in anaesthetised rats, test (d). The test is classed as in vivo, rats (Alderley Park strain). On the procedure:
(d) Male rats (Alderley Park strain) are anaesthetised with sodium pentobarbital and blood pressure is monitored at the carotid artery. The TXA2 mimetic agent U46619 is administered intravenously via the jugular vein and an ED50 (dose necessary to produce 50% of the maximum hypertensive effect) is established (n=3). The ED50 for U46619 is approximately 5 μg/kg. A test compound is then administered either intravenously via the jugular vein or orally via a cannula directly into the stomach and the animal challenged with an ED50 dose of U46619, five minutes after dosing with test compound and then successively every ten minutes until the hypertensive effect of U46619 is no longer blocked.

Structures are written as SMILES.

As to `CCC[C@H]1OC[C@H](c2ccccc2C)[C@@H](CCCCCCC(=O)O)O1` (relative stereo) [Example 12, 7-([2,4-cis,4,5-trans]-2-n-propyl-5-o-tolyl-1,3-dioxan-4-yl)heptanoic acid], the reduction of bronchoconstriction result in test [1] was “significant reduction of bronchoconstriction”. Besides, the pA2 in test [2] came to 6.7. Besides, the “inhibition of the hypertensive effect” value in test [3] (test (d), 80-90 minutes following an oral dose of 50 mg./kg., challenge with ED50 dose of U46619) is reported as “complete inhibition of the hypertensive effect”.

Turning to `CCCCC[C@H](O)/C=C/[C@@H]1[C@@H](C/C=C\CCCC(=O)O)[C@H]2CO[C@@H]1C2` [Example U46619, reference compound], the ED50 in test [3] (Rattus norvegicus, iv, intravenously via the jugular vein, anaesthetised male rats, n=3, read-out: ED50 (dose necessary to produce 50% of the maximum hypertensive effect)) was around 5 µg/kg.

The record behind these values is patent US4704399A, “1,3-dioxan-4-ylalkenoic acids” (Imperial Chemical Industries PLC, priority 1983, dated 1987).
